Experimental data: US20110118277A1, “METHOD OF TREATING LIVER DISEASE” (priority 2003, published 2011)

What was measured:
[1] = system: oval cells; test: Oval cell accumulation in Dbh-deficient mice fed MCD diet plus ethionine; format: in vivo, mouse; settings: 4 weeks, ISO infused, FIG. 11
Description: Male Dbh* C57B 116 mice and their heterozygous littermates were generated and maintained as previously described in Cell 91: 583-592, 1997, and used at 30-40 weeks of age. Wild type C57B 116 mice were from Jackson Laboratory (Bar Harbor, Me.) Animals were allowed access to diets and water ad libitum. To induce oval cell expansion, mice were fed methionine choline deficient diets (ICN, Aurora, Ohio) supplemented with 0.15% Ethionine in the drinking water for 4 weeks. […]
Details of the staining procedures are as described in Am J Pathol 161: 521-530, 2002. […] Mouse monoclonal OV6 antibody and rat anti-cytokeratin 19 were detected using the DAKO Animal Research Kit, peroxidase (Dako, Denmark). The rabbit polyclonal antibody against 56 and 64 kiD human callus cytokeratins was detected by anti-rabbit Envision (Dako, Denmark) as described in J Pathol 199:191-200, 2003. […]
For each liver section, the number of oval cells in 5, randomly selected, non-overlapping, high power (×40 objective) fields was counted. […] Interlobular bile ducts were not considered progenitor cells and, thus not counted as such.
Dbh* and their control Dbh* littermates were fed methionine choline deficient (MCD) diets to induce oval cell expansion. […] Oval cell numbers were counted in 5 randomly selected fields/section from 4 mice/group. […]

[2] = system: Mouse hepatic oval cells (HOC); test: Oval cell growth in culture (WST-8 cell number assay); format: cell-based; settings: 48 hours; for effect on NE-induced oval cell proliferation: prazosin 10 μM; for effect on NE-induced oval cell proliferation / effect on ISO-induced oval cell proliferation: pertussis toxin 100 ng/ml, PD98059 20 μM, SB202190 10 μM; for effect on ISO-induced oval cell proliferation: propranolol 10 μM
Description: Mouse hepatic oval cells (HOC) (from Dr. Bryon Petersen, University of Florida College of Medicine, Gainesville, Fla.) were maintained in culture with Iscove's modified DMEM according to the protocol described in PNAS 99: 8078-8083, 2002. To confirm that the cells retained their oval cell phenotype in our hands, expression of the embryonic isoform of pyruvate kinase (M2-PK) was evaluated by immunocytochemistry and immunoblot.
Sub-confluent HOC were harvested by gentle trypsinisation and resuspended in serum-free Iscove's modified Dulbecco's minimal essential medium (DMEM), at a density of 5,000 cells/100 μl/well in 96-well plates. […] After 44 hours, cell numbers were assessed by a further 4 h incubation with WST-8 tetrazolium reagent (Dojindo Molecular Technologies, Gaithersburg, Md.) as described in J Clin Invest 106: 501-509, 2000. In viable cells, the tetrazolium salt is metabolized to a colorimetric dye and cell number is proportional to the signal intensity at 450 nm Therefore, this assay reliably detects treatment-induced changes in cell number.
Oval cells were cultured in serum free medium (SF), serum or serum plus increasing concentrations of NE (a) or ISO (c). After 48 hours, the numbers of cells in culture were evaluated. […] Cell numbers were determined after 48 hours.

| Compound | effect on proliferation of cultured oval cells ([2]; 5% serum) | effect on NE-induced oval cell proliferation [2] | effect on ISO-induced oval cell proliferation [2] | further results |
| --- | --- | --- | --- | --- |
| CC(C)NCC(O)c1ccc(O)c(O)c1 (centres unmarked) [ISO, isoprenaline] | promotes the proliferation of oval cells |  |  | hepatic oval cell accumulation in Dbh-deficient mice [1]: p<0.05 Dbh*+ISO versus Dbh*; concentration of peak proliferative activity (biphasic), first peak ([2]; ISO, 5% serum): 100 nM; concentration of peak proliferative activity (biphasic), second peak ([2]; ISO, 5% serum): 10 mM |
| NC[C@H](O)c1ccc(O)c(O)c1 [NE, norepinephrine] | significantly promote the proliferation of cultured oval cells |  |  | concentration of maximal proliferative effect ([2]; NE, 5% serum): 100 nM; concentration up to which the proliferative effect persists ([2]; NE, 5% serum): up to 100 μM |
| COc1cccc(-c2cc(=O)c3ccccc3o2)c1N [PD98059] |  | significantly attenuated | significantly attenuated |  |
| Oc1ccc(-c2nc(-c3ccncc3)c(-c3ccc(F)cc3)[nH]2)cc1 [SB202190] |  | tends to reduce the effect of NE and ISO, but this is not statistically significant | tends to reduce the effect of NE and ISO, but this is not statistically significant |  |
| CC(C)NCC(O)COc1cccc2ccccc12 (centres unmarked) [propranolol] |  |  | attenuated |  |
| pertussis toxin |  | significantly attenuated | significantly attenuated |  |
